Measurements as given in PubChem BioAssay (NCI).
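Interpolation was linear, between the two tested concentrations surrounding the appropriate level; five concentrations were tested over 48 hours in 96-well plates. The concentration for full growth arrest is given as TGI.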

Experiments:
Assay in all cases: DTP human tumour cell line panel, 48 h
786-0 renal = test system: 786-0 renal
A498 renal = test system: A498 renal
A549 NSCLC = test system: A549 NSCLC
ACHN renal = test system: ACHN renal
BT-549 breast = test system: BT-549 breast
CAKI-1 renal = test system: CAKI-1 renal
CCRF-CEM leukemia = test system: CCRF-CEM leukemia
COLO 205 colon = test system: COLO 205 colon
DU-145 prostate = test system: DU-145 prostate
EKVX NSCLC = test system: EKVX NSCLC
HCC-2998 colon = test system: HCC-2998 colon
HCT-116 colon = test system: HCT-116 colon
HCT-15 colon = test system: HCT-15 colon
HL-60(TB) leukemia = test system: HL-60(TB) leukemia
HOP-92 NSCLC = test system: HOP-92 NSCLC
HS 578T breast = test system: HS 578T breast
HT29 colon = test system: HT29 colon
K-562 leukemia = test system: K-562 leukemia
KM12 colon = test system: KM12 colon
LOX IMVI melanoma = test system: LOX IMVI melanoma
M14 melanoma = test system: M14 melanoma
MALME-3M melanoma = test system: MALME-3M melanoma
MCF7 breast = test system: MCF7 breast
MDA-MB-231 breast = test system: MDA-MB-231 breast
MDA-MB-435 = test system: MDA-MB-435
MDA-N = test system: MDA-N
MOLT-4 leukemia = test system: MOLT-4 leukemia
NCI-H226 lung = test system: NCI-H226 lung
NCI-H23 lung = test system: NCI-H23 lung
NCI-H460 lung = test system: NCI-H460 lung
NCI-H522 lung = test system: NCI-H522 lung
NCI/ADR-RES ovarian = test system: NCI/ADR-RES ovarian
OVCAR-3 ovarian = test system: OVCAR-3 ovarian
OVCAR-4 ovarian = test system: OVCAR-4 ovarian
OVCAR-5 ovarian = test system: OVCAR-5 ovarian
OVCAR-8 ovarian = test system: OVCAR-8 ovarian
PC-3 prostate = test system: PC-3 prostate
RPMI-8226 leukemia = test system: RPMI-8226 leukemia
RXF 393 renal = test system: RXF 393 renal
SF-268 CNS = test system: SF-268 CNS
SF-295 CNS = test system: SF-295 CNS
SF-539 CNS = test system: SF-539 CNS
SK-MEL-2 melanoma = test system: SK-MEL-2 melanoma
SK-MEL-28 melanoma = test system: SK-MEL-28 melanoma
SK-MEL-5 melanoma = test system: SK-MEL-5 melanoma
SK-OV-3 ovarian = test system: SK-OV-3 ovarian
SN12C renal = test system: SN12C renal
SNB-19 CNS = test system: SNB-19 CNS
SNB-75 CNS = test system: SNB-75 CNS
SR leukemia = test system: SR leukemia
SW-620 colon = test system: SW-620 colon
T-47D breast = test system: T-47D breast
TK-10 renal = test system: TK-10 renal
U251 CNS = test system: U251 CNS
UACC-257 melanoma = test system: UACC-257 melanoma
UACC-62 melanoma = test system: UACC-62 melanoma
UO-31 renal = test system: UO-31 renal
HOP-62 NSCLC = test system: HOP-62 NSCLC
IGROV1 ovarian = test system: IGROV1 ovarian

Measured: TGI

c1ccc(NNN2NC(c3ccccc3)C2c2ccccc2)cc1 (stereo not given)
not listed: HOP-62 NSCLC | IGROV1 ovarian
> 100 µM: all other assays above

COc1ccc(/C=C2/N=C(N/N=C\C(O)C(O)C(O)C(O)CO)NC2=O)cc1 (stereo not given)
not listed: UACC-62 melanoma
> 100 µM: all other assays above
